Experimental data reported in US8143212B2 (Vicuron Pharmaceuticals Inc., priority 2002, dated 2012).
Values after ≈ are worked out from the molar mass of the structure shown.

Key:
Format in all cases: cell-based
[1] = tested on: Candida albicans SKF 2270; experiment: MIC by broth microdilution (NCCLS) (Tables 42, 44)
[2] = tested on: Escherichia coli, Proteus vulgaris, Pseudomonas aeruginosas; experiment: MIC by broth microdilution (NCCLS) of IsoB0 and reference compounds (Table 44), non-gram-positive bacterial strains
Procedure: (§1) MICs were determined by the broth microdilution methodology following the standard NCCLS procedure, with or without 30% bovine serum, using bacterial inocula of approximately 5×10^5 CFU/mL. Tests were read after 20-24 h incubation at 35° C.

[3] = tested on: panel of gram-positive bacteria; experiment: MIC by broth microdilution (NCCLS) of IsoB0 and reference compounds (Table 44)
Procedure: Müller Hinton broth (Difco Laboratories, Detroit, Mich., USA) adjusted with CaCl2 and MgCl2 to a final concentrations of 20 mg/L and 10 mg/L respectively.
The microorganisms used are reference standard strains from the American Type Culture Collection (ATCC, Rockville, USA), Smith Kline and French Laboratories (SKF) and the Upjohn Company (UC, Kalamazoo, Mich., USA).
as §1

gram positive bacteria = experiment: MIC by broth microdilution (NCCLS), with or without 30% bovine serum (Table 42)
Procedure: (§2) Before dissolution, each sample was analyzed by HPLC and quantified.
(§3) The microorganisms used were reference strains obtained from the American Type Culture Collection (ATCC) (Rockville, Md.), SmithKline and French Laboratories (SKF), and the Upjohn Company (UC) (Kalamazoo, Mich.).
(§4) MICs were determined by the broth microdilution methodology following the standard NCCLS procedure (NCCLS Document M7-A6, Vol. 23, No. 2, “Methods for dilution antimicrobial susceptibility tests for bacteria that grow aerobically.” Approved Guideline. January 2003, which can be herein incorporated by reference in its entirety), with or without 30% adult bovine serum (BS) (PAA Laboratories GMBH, Haidmannweg Pasching Austria), using bacterial innocula at approximately 5×10^5 CFU/ml. The media employed included cation-adjusted Müller Hinton broth (Difco Laboratories, Detroit, Mich.) that was used that was adjusted with CaCl2 and MgCl2 to a final concentration of 20 mg/L and 10 mg/L, respectively. Tests were read following 20-24 hours of incubation at 35° C.

gram-negative bacteria = experiment: MIC by broth microdilution (NCCLS) (Table 42)
Procedure: as §2, §3, §4

[4] = Candida albicans SKF2270 (Table 44)
[5] = Pseudomonas aeruginosas ATCC 10145
[6] = E. faecalis ATCC29212 ref. strain
[7] = Enterococcus faecalis ATCC 7080
[8] = S. aureus ATCC 29213 ref. strain
[9] = Staphylococcus aureus Smith ATCC 19636
[10] = Streptococcus pyogenes SKF13400

In the case of `C[C@@H]1[C@H](O)[C@@H](C)/C=C/C=C/C=C/C=C/C=C/C=C/C=C/[C@H](O[C@@H]2O[C@H](C)[C@@H](O)[C@H](N)[C@@H]2O)C[C@@H]2O[C@](O)(C[C@@H](O)C[C@@H](O)[C@H](O)CC[C@@H](O)C[C@@H](O)CC(=O)O[C@H]1C)C[C@H](O)[C@H]2C(=O)O` [Amph. B], the MIC [1, 4] is reported as 0.125 mg/L (≈ 0.135 µM), the MIC ([2]; E. coli ATCC25922 ref. strain) is reported as over 64 mg/L and the MIC ([2]; Escherichia coli SKF 12140) is reported as over 64 mg/L. The MIC ([2]; Proteus vulgaris ATCC 881) was over 64 mg/L, the MIC [2, 5] was over 64 mg/L and the MIC ([3]; Bacillus subtilis ATCC 6633) was over 64 mg/L. The MIC [3, 6] was over 64 mg/L, the MIC [3, 7] was over 64 mg/L and the MIC [3, 8] was over 64 mg/L. It also gave an MIC ([3]; S. aureus Smith + 30% BS) of over 64 mg/L, an MIC ([3]; S. epidermidis ATCC 12228) of over 64 mg/L and an MIC ([3]; S. pneumoniae Felton UC41) of over 64 mg/L. The MIC [3, 9] was over 64 mg/L and the MIC [3, 10] was 32 mg/L (≈ 34.6 µM).

`CCCCCCCCCCCC(=O)N[C@H]1[C@H](Oc2c3cc4cc2Oc2ccc(cc2Cl)[C@@H](O)[C@@H]2NC(=O)[C@H](NC(=O)[C@@H]4NC(=O)[C@H]4NC(=O)[C@@H](Cc5ccc(cc5)O3)NC(=O)[C@H](NC)c3ccc(O)c(c3)Oc3cc(O)c(Cl)c4c3)c3ccc(O)c(c3)-c3c(O[C@H]4O[C@H](CO)[C@@H](O)[C@H](O)[C@@H]4O)cc(O)cc3[C@@H](C(=O)NCCCN(C)C)NC2=O)O[C@H](C(=O)O)[C@@H](O)[C@@H]1O` [Composition B1] was tested, and the MIC ([1]; Candida albicans SKF 2270 (Table 42)) was over 64 mg/L, the MIC (gram positive bacteria; Bacillus subtilis ATCC 6633) was “≦0.06 mg/L” and the MIC (gram positive bacteria; [6]) was 0.125 mg/L (≈ 0.0688 µM). It also gave an MIC (gram positive bacteria; [7]) of 0.125 mg/L (≈ 0.0688 µM), an MIC (gram positive bacteria; [8]) of 0.125 mg/L (≈ 0.0688 µM) and an MIC (gram positive bacteria; S. aureus Smith + 30% BS) of 2 mg/L. For the same molecule, the MIC (gram positive bacteria; S. epidermidis ATCC 12228) was “≦0.06 mg/L”, the MIC (gram positive bacteria; S. pneumoniae Felton UC41) was “≦0.06 mg/L” and the MIC (gram positive bacteria; [9]) was 0.125 mg/L (≈ 0.0688 µM). For the same molecule, the MIC (gram positive bacteria; Streptococcus pyrogenes SKF 13400) was “≦0.06 mg/L”, the MIC (gram-negative bacteria; E. coli ATCC25922 ref. strain) was over 64 mg/L and the MIC (gram-negative bacteria; Escherichia coli SKF 12140) was over 64 mg/L. The MIC (gram-negative bacteria; Proteus vulgaris ATCC 881) was over 64 mg/L and the MIC (gram-negative bacteria; [5]) was over 64 mg/L.

`CC1(C)S[C@@H]2[C@H](NC(=O)Cc3ccccc3)C(=O)N2[C@H]1C(=O)O` [Pen. G] showed an MIC [1, 4] of over 32 mg/L, an MIC ([2]; E. coli ATCC25922 ref. strain) of over 32 mg/L and an MIC ([2]; Escherichia coli SKF 12140) of over 32 mg/L. For the same molecule, the MIC ([2]; Proteus vulgaris ATCC 881) was over 32 mg/L, the MIC [2, 5] was over 32 mg/L and the MIC ([3]; Bacillus subtilis ATCC 6633) was “≦0.03 mg/L”. It also gave an MIC [3, 6] of 4 mg/L (≈ 12 µM), an MIC [3, 7] of 32 mg/L (≈ 95.7 µM) and an MIC [3, 8] of 8 mg/L (≈ 23.9 µM). For the same molecule, the MIC ([3]; S. aureus Smith + 30% BS) was 0.06 mg/L, the MIC ([3]; S. epidermidis ATCC 12228) was over 32 mg/L and the MIC ([3]; S. pneumoniae Felton UC41) was “≦0.03 mg/L”. For the same molecule, the MIC [3, 9] was 0.06 mg/L (≈ 0.179 µM) and the MIC [3, 10] was “≦0.03 mg/L”.
